# In PubChem BioAssay AID1745844 (Carcinogenic Potency Database (CPDB), 2022):
# Active and inactive are the calls of the source. The rule behind the calls is not given here.
# Test system: rodent lifetime carcinogenesis bioassay, tumor incidence TD50
# Test: chronic cancer bioassays in animals – CPDB, compiled studies (AID 1745844)
smiles,measurement,setting,value
COc1cc(/C=C/C(=O)O[C@H]2CC[C@]34C[C@]35CC[C@]3(C)[C@@H]([C@H](C)CCC=C(C)C)CC[C@@]3(C)[C@@H]5CC[C@H]4C2(C)C)ccc1O,TD50,"mouse, strain B6C3F1, females, in feed, site: all sites, lesion: malignant lymphoma, dosed 78 weeks, study length 79 weeks",5970 mg/kg/day (inactive)
same,carcinogen call,"mouse, strain B6C3F1, females, in feed, site: liver, lesion: hepatocellular carcinoma, dosed 78 weeks, study length 79 weeks",negative (inactive)
same,carcinogen call,"mouse, strain B6C3F1, females, in feed, site: liver, lesion: neoplastic nodule, dosed 78 weeks, study length 79 weeks",negative (inactive)
same,carcinogen call,"mouse, strain B6C3F1, females, in feed, site: lung, lesion: alveolar/bronchiolar adenoma, dosed 78 weeks, study length 79 weeks",negative (inactive)
same,TD50,"mouse, strain B6C3F1, males, in feed, site: all sites, lesion: malignant lymphoma, dosed 78 weeks, study length 79 weeks",15900 mg/kg/day (inactive)
same,carcinogen call,"mouse, strain B6C3F1, males, in feed, site: liver, lesion: hepatocellular carcinoma, dosed 78 weeks, study length 79 weeks",negative (inactive)
same,carcinogen call,"mouse, strain B6C3F1, males, in feed, site: liver, lesion: neoplastic nodule, dosed 78 weeks, study length 79 weeks",negative (inactive)
same,carcinogen call,"mouse, strain B6C3F1, males, in feed, site: lung, lesion: alveolar/bronchiolar adenocarcinoma, dosed 78 weeks, study length 79 weeks",negative (inactive)
same,carcinogen call,"mouse, strain B6C3F1, males, in feed, site: lung, lesion: alveolar/bronchiolar adenoma, dosed 78 weeks, study length 79 weeks",negative (inactive)
same,carcinogen call,"rat, strain F344/DuCrj, females, in feed, site: liver, lesion: neoplastic nodule, dosed 104 weeks, study length 105 weeks",negative (inactive)
same,TD50,"rat, strain F344/DuCrj, males, in feed, site: liver, lesion: neoplastic nodule, dosed 104 weeks, study length 105 weeks",68500 mg/kg/day (inactive)
OC(c1ccc(Cl)cc1)(c1ccc(Cl)cc1)C(Cl)(Cl)Cl,carcinogen call,"mouse, strain B6C3F1, females, in feed, site: any site (literature study), lesion: several types, types named in the paper, dosed 78 weeks, study length 91 weeks",negative (inactive)
same,TD50,"mouse, strain B6C3F1, males, in feed, site: any site (literature study), lesion: several types, types named in the paper, dosed 78 weeks, study length 91 weeks",59.2 mg/kg/day
same,TD50,"mouse, strain B6C3F1, males, in feed, site: liver, lesion: hepatocellular adenoma + hepatocellular carcinoma + neoplastic nodule, dosed 78 weeks, study length 91 weeks",32.9 mg/kg/day
same,TD50,"mouse, strain B6C3F1, males, in feed, site: liver, lesion: hepatocellular adenoma + hepatocellular carcinoma, dosed 78 weeks, study length 91 weeks",32.9 mg/kg/day
same,TD50,"mouse, strain B6C3F1, males, in feed, site: liver, lesion: hepatocellular carcinoma, dosed 78 weeks, study length 91 weeks",34.8 mg/kg/day
same,TD50,"mouse, strain B6C3F1, males, in feed, site: lung, lesion: alveolar/bronchiolar adenoma + alveolar/bronchiolar carcinoma, dosed 78 weeks, study length 91 weeks",616 mg/kg/day
same,carcinogen call,"rat, strain Osborne-Mendel, females, in feed, site: any site (literature study), lesion: several types, types named in the paper, dosed 78 weeks, study length 111 weeks",negative (inactive)
same,carcinogen call,"rat, strain Osborne-Mendel, males, in feed, site: any site (literature study), lesion: several types, types named in the paper, dosed 78 weeks, study length 110 weeks",negative (inactive)
same,TD50,"rat, strain Osborne-Mendel, males, in feed, site: liver, lesion: hepatocellular adenoma + hepatocellular carcinoma + neoplastic nodule, dosed 78 weeks, study length 110 weeks",517 mg/kg/day
O=C(O)O,TD50,"mouse, strain B6C3F1, males, in drinking water, site: liver, lesion: hepatocellular adenoma, dosed 52 weeks, study length 52 weeks",1330 mg/kg/day (inactive)
same,TD50,"rat, strain F344/DuCrj, males, in feed, site: urinary bladder, lesion: carcinoma, dosed 104 weeks, study length 104 weeks",5350 mg/kg/day (inactive)
same,TD50,"rat, strain Wistar-random, females, in feed, site: urinary bladder, lesion: several types, types named in the paper, dosed 130 weeks, study length 130 weeks",12800 mg/kg/day
same,TD50,"rat, strain Wistar-random, females, in feed, site: urinary bladder, lesion: transitional-cell carcinoma, dosed 130 weeks, study length 130 weeks",37100 mg/kg/day
same,TD50,"rat, strain Wistar-random, females, in feed, site: urinary bladder, lesion: transitional-cell papilloma, dosed 78 weeks, study length 78 weeks",8280 mg/kg/day
same,TD50,"rat, strain Wistar-random, females, in feed, site: urinary bladder, lesion: transitional-cell papilloma, dosed 130 weeks, study length 130 weeks",20700 mg/kg/day
same,TD50,"rat, strain Wistar-random, males, in feed, site: urinary bladder, lesion: several types, types named in the paper, dosed 78 weeks, study length 78 weeks",6400 mg/kg/day
same,TD50,"rat, strain Wistar-random, males, in feed, site: urinary bladder, lesion: several types, types named in the paper, dosed 121 weeks, study length 121 weeks",13200 mg/kg/day
same,TD50,"rat, strain Wistar-random, males, in feed, site: urinary bladder, lesion: transitional-cell carcinoma, dosed 78 weeks, study length 78 weeks",12900 mg/kg/day
same,TD50,"rat, strain Wistar-random, males, in feed, site: urinary bladder, lesion: transitional-cell carcinoma, dosed 121 weeks, study length 121 weeks",54400 mg/kg/day
same,TD50,"rat, strain Wistar-random, males, in feed, site: urinary bladder, lesion: transitional-cell papilloma, dosed 78 weeks, study length 78 weeks",13100 mg/kg/day
same,TD50,"rat, strain Wistar-random, males, in feed, site: urinary bladder, lesion: transitional-cell papilloma, dosed 121 weeks, study length 121 weeks",17800 mg/kg/day
C/C=C1/C[C@@H](C)[C@](O)(CO)C(=O)OCC2=CC[N+]3([O-])CC[C@@H](OC1=O)[C@@H]23 (stereo partly specified),TD50,"rat, strain Wistar, females, in drinking water, site: liver, lesion: hepatoma, dosed 103 weeks, study length 104 weeks",1.27 mg/kg/day
same,TD50,"rat, strain Wistar, males, in drinking water, site: liver, lesion: hepatoma, dosed 103 weeks, study length 104 weeks",0.499 mg/kg/day
CCNC(=O)Nc1ncc([N+](=O)[O-])s1,TD50,"mouse, strain B6C3F1, females, in feed, site: any site (literature study), lesion: several types, types named in the paper, dosed 94 weeks, study length 104 weeks",1400 mg/kg/day (inactive)
same,TD50,"mouse, strain B6C3F1, females, in feed, site: liver, lesion: hepatocellular adenoma + hepatocellular carcinoma + neoplastic nodule, dosed 94 weeks, study length 104 weeks",2720 mg/kg/day
same,TD50,"mouse, strain B6C3F1, males, in feed, site: any site (literature study), lesion: several types, types named in the paper, dosed 94 weeks, study length 104 weeks",4750 mg/kg/day
same,TD50,"mouse, strain B6C3F1, males, in feed, site: liver, lesion: hepatocellular adenoma + hepatocellular carcinoma + neoplastic nodule, dosed 94 weeks, study length 104 weeks",758 mg/kg/day
same,TD50,"mouse, strain B6C3F1, males, in feed, site: liver, lesion: hepatocellular adenoma + hepatocellular carcinoma, dosed 94 weeks, study length 104 weeks",758 mg/kg/day
same,TD50,"mouse, strain B6C3F1, males, in feed, site: liver, lesion: hepatocellular carcinoma, dosed 94 weeks, study length 104 weeks",1900 mg/kg/day
same,TD50,"rat, strain Fischer 344, females, in feed, site: any site (literature study), lesion: several types, types named in the paper, dosed 94 weeks, study length 104 weeks",175 mg/kg/day
same,TD50,"rat, strain Fischer 344, females, in feed, site: mammary gland + skin + subcutaneous tissue, lesion: cystadenoma, NOS + fibroadenoma, dosed 94 weeks, study length 104 weeks",131 mg/kg/day
same,carcinogen call,"rat, strain Fischer 344, males, in feed, site: any site (literature study), lesion: several types, types named in the paper, dosed 94 weeks, study length 104 weeks",negative (inactive)
same,TD50,"rat, strain Fischer 344, males, in feed, site: liver, lesion: hepatocellular adenoma + hepatocellular carcinoma + neoplastic nodule, dosed 94 weeks, study length 104 weeks",508 mg/kg/day
CN(N=O)c1ccccn1,TD50,"rat, strain BD VI, females, by gavage, site: any site (literature study), lesion: benign tumor, dosed 72 weeks, study length 72 weeks",3.05 mg/kg/day
same,TD50,"rat, strain BD VI, females, by gavage, site: any site (literature study), lesion: malignant tumor, dosed 72 weeks, study length 72 weeks",0.668 mg/kg/day
same,TD50,"rat, strain BD VI, females, by gavage, site: any site (literature study), lesion: several types, types named in the paper, dosed 72 weeks, study length 72 weeks",0.28 mg/kg/day
same,TD50,"rat, strain BD VI, females, by gavage, site: esophagus, lesion: several types, types named in the paper, dosed 72 weeks, study length 72 weeks",0.214 mg/kg/day
C[C@H]([C@H](O)CCC(C)(C)O)[C@H]1CC[C@@]2(O)C3=CC(=O)[C@@H]4C[C@@H](O)[C@@H](O)C[C@]4(C)[C@H]3CC[C@]12C,TD50,"mouse, strain Swiss albino, females, by gavage, site: any site (literature study), lesion: malignant tumor, dosed 95 weeks, study length 95 weeks",0.0264 mg/kg/day
same,TD50,"mouse, strain Swiss albino, females, by gavage, site: mammary gland, lesion: adenocarcinoma, dosed 95 weeks, study length 95 weeks",0.0264 mg/kg/day
same,TD50,"mouse, strain Swiss albino, males, by gavage, site: any site (literature study), lesion: malignant tumor, dosed 95 weeks, study length 95 weeks",0.0558 mg/kg/day
same,TD50,"mouse, strain Swiss albino, males, by gavage, site: lung, lesion: adenocarcinoma, dosed 95 weeks, study length 95 weeks",0.0558 mg/kg/day
FC(F)OC(F)(F)C(F)Cl (stereo unspecified),carcinogen call,"mouse, strain Swiss/ICR, females, inhaled, site: liver, lesion: one or several types, types not named, dosed 52 weeks, study length 52 weeks",negative (inactive)
same,carcinogen call,"mouse, strain Swiss/ICR, females, inhaled, site: liver, lesion: several types, types named in the paper, dosed 78 weeks, study length 82 weeks",negative (inactive)
same,TD50,"mouse, strain Swiss/ICR, females, inhaled, site: lung, lesion: adenoma, dosed 52 weeks, study length 52 weeks",8930 mg/kg/day (inactive)
same,TD50,"mouse, strain Swiss/ICR, females, inhaled, site: lung, lesion: adenoma, dosed 78 weeks, study length 82 weeks",18900 mg/kg/day (inactive)
same,TD50,"mouse, strain Swiss/ICR, males, inhaled, site: liver, lesion: several types, types named in the paper, dosed 52 weeks, study length 52 weeks",8120 mg/kg/day (inactive)
same,TD50,"mouse, strain Swiss/ICR, males, inhaled, site: liver, lesion: several types, types named in the paper, dosed 78 weeks, study length 82 weeks",11700 mg/kg/day (inactive)
same,carcinogen call,"mouse, strain Swiss/ICR, males, inhaled, site: lung, lesion: adenoma, dosed 52 weeks, study length 52 weeks",negative (inactive)
same,TD50,"mouse, strain Swiss/ICR, males, inhaled, site: lung, lesion: adenoma, dosed 78 weeks, study length 82 weeks",60900 mg/kg/day (inactive)
Cn1cc(OCC(O)CNC(C)(C)C)c2ccccc2c1=O (stereo unspecified),carcinogen call,"mouse, strain Charles River CD1, females, by gavage, site: any site (literature study), lesion: several types, types named in the paper, dosed 80 weeks, study length 80 weeks",negative (inactive)
same,carcinogen call,"mouse, strain Charles River CD1, females, by gavage, site: liver, lesion: one or several types, types not named, dosed 80 weeks, study length 80 weeks",negative (inactive)
same,carcinogen call,"mouse, strain Charles River CD1, females, by gavage, site: lung, lesion: adenocarcinoma, dosed 80 weeks, study length 80 weeks",negative (inactive)
same,TD50,"mouse, strain Charles River CD1, females, by gavage, site: lung, lesion: adenoma, dosed 80 weeks, study length 80 weeks",843 mg/kg/day (inactive)
same,TD50,"mouse, strain Charles River CD1, males, by gavage, site: any site (literature study), lesion: several types, types named in the paper, dosed 80 weeks, study length 80 weeks",256 mg/kg/day (inactive)
same,TD50,"mouse, strain Charles River CD1, males, by gavage, site: liver, lesion: hepatocellular adenoma, dosed 80 weeks, study length 80 weeks",131 mg/kg/day (inactive)
same,carcinogen call,"mouse, strain Charles River CD1, males, by gavage, site: liver, lesion: hepatocellular carcinoma, dosed 80 weeks, study length 80 weeks",negative (inactive)
same,TD50,"mouse, strain Charles River CD1, males, by gavage, site: lung, lesion: adenocarcinoma, dosed 80 weeks, study length 80 weeks",99.2 mg/kg/day (inactive)
same,TD50,"mouse, strain Charles River CD1, males, by gavage, site: lung, lesion: adenoma, dosed 80 weeks, study length 80 weeks",7200 mg/kg/day (inactive)
same,TD50,"rat, strain Charles River CD (Sprague-Dawley), females, by gavage, site: any site (literature study), lesion: several types, types named in the paper, dosed 104 weeks, study length 104 weeks",40 mg/kg/day (inactive)
same,carcinogen call,"rat, strain Charles River CD (Sprague-Dawley), females, by gavage, site: liver, lesion: hepatocellular adenoma, dosed 104 weeks, study length 104 weeks",negative (inactive)
same,TD50,"rat, strain Charles River CD (Sprague-Dawley), males, by gavage, site: any site (literature study), lesion: several types, types named in the paper, dosed 104 weeks, study length 104 weeks",128 mg/kg/day (inactive)
same,TD50,"rat, strain Charles River CD (Sprague-Dawley), males, by gavage, site: liver, lesion: hepatocellular adenoma, dosed 104 weeks, study length 104 weeks",384 mg/kg/day (inactive)
same,carcinogen call,"rat, strain Charles River CD (Sprague-Dawley), males, by gavage, site: liver, lesion: hepatocellular carcinoma, dosed 104 weeks, study length 104 weeks",negative (inactive)
CC(O)CO (stereo unspecified),carcinogen call,"rat, strain Charles River CD (Sprague-Dawley), females, in feed, site: liver, lesion: nodular hyperplasia, dosed 104 weeks, study length 104 weeks",negative (inactive)
same,carcinogen call,"rat, strain Charles River CD (Sprague-Dawley), males, in feed, site: liver, lesion: nodular hyperplasia, dosed 104 weeks, study length 104 weeks",negative (inactive)
